In patent US8343983B2, “Substituted pyrazolo-pyrimidine compounds” (ArQule, Inc., priority 2009, dated 2013):
Read-outs that look alike come from different tables or passages of the source.

System: cancer cells
Assay: MTS assay: inhibition of cell growth (formazan absorbance at 492 nm after 72 hours with test compound)
Type: cell-based
Details: inhibition class
Protocol: Cells were maintained at 37° C., 5% CO2 in DMEM media supplemented with 1% fetal bovine serum, penicillin/streptomycin and fungizone (Invitrogen). Cells were seeded into 96-well tissue culture plates at 3000 per well and cultured at 37° C. for 18 hours. Test compounds were dissolved and diluted to 300× in DMSO then diluted 1:40 in DMEM. Cells were incubated with test compounds for 72 hours followed by incubation with tetrazolium compound (3-(4,5-dimethylthiazol-2-yl)-5-(3-carboxymethoxyphenyl)-2-(4-sulfophenyl)-2H-tetrazolium, inner salt; MTS) and the electron coupling reagent, phenazine methosulfate (PMS) for 4 hours. […] The ability of compounds to inhibit cell growth in this assay is correlated with the reduction of dehydrogenase enzyme activity found in metabolically active cells. The measurement of the absorbance of the formazan was assessed using an ENVISION™ (Perkin Elmer) microplate reader at 492 nm. The calculated IC50 value is the concentration of the test compound that causes a 50% decrease in the absorbance. […] A=>79% inhibition, B=>50 to 79% inhibition, C=<50% inhibition.

[1] = Homo sapiens, DLD-1 cells, read-out: DLD-1, MTS 72 hours at 10 uM
[2] = Homo sapiens, KATO III cells, read-out: KATO III, MTS 72 hours at 10 uM
[3] = Homo sapiens, MDA-MB-231 cells, read-out: MDA-MB-231, MTS 72 hours at 10 uM
[4] = Homo sapiens, NCI-H1299 cells, read-out: NCI-H1299, MTS 72 hours at 10 uM
[5] = Homo sapiens, PC-3 cells, read-out: PC-3, MTS 72 hours at 10 uM
[6] = PACA-2 cells, read-out: PACA-2, MTS 72 hours at 10 uM

SMILES | inhibition at 10 µM [1] [%] | inhibition at 10 µM [2] [%] | inhibition at 10 µM [3] [%] | inhibition at 10 µM [4] [%] | inhibition at 10 µM [5] [%] | inhibition at 10 µM [6] [%]
c1ccc(CN2CCc3n[nH]c4nc(NCc5ccc(Oc6ccccc6)cc5)nc2c34)cc1 [Compound 40] | < 50 | 50 to 79 | < 50 | 50 to 79 | < 50 | 50 to 79
CN1CCCC1CCNc1nc2c3c(n[nH]c3n1)CCN2Cc1ccccc1 (stereo not drawn) [Compound 41, 6-benzyl-N-[2-(1-methylpyrrolidin-2-yl)ethyl]-2,6,7,8-tetrahydro-1,2,3,5,6-pentaazaacenaphthylen-4-amine] | < 50 | < 50 | 50 to 79 | < 50 | < 50 | < 50
c1ccc(CN2CCc3n[nH]c4nc(N5CCN6CCCC6C5)nc2c34)cc1 (stereo not drawn) [Compound 42, 6-benzyl-4-(hexahydropyrrolo[1,2-a]pyrazin-2(1H)-yl)-2,6,7,8-tetrahydro-1,2,3,5,6-pentaazaacenaphthylene] | < 50 | < 50 | < 50 | < 50 | < 50 | < 50
COc1ccccc1N1CCN(c2nc3c4c(n[nH]c4n2)CCN3Cc2ccccc2)CC1 [Compound 43, 6-benzyl-4-[4-(2-methoxyphenyl)piperazin-1-yl]-2,6,7,8-tetrahydro-1,2,3,5,6-pentaazaacenaphthylene] | < 50 | > 79 | > 79 | < 50 | > 79 | < 50
c1ccc(CN2CCc3n[nH]c4nc(N5CCN(c6ccccc6)CC5)nc2c34)cc1 [Compound 44, 6-benzyl-4-(4-phenylpiperazin-1-yl)-2,6,7,8-tetrahydro-1,2,3,5,6-pentaazaacenaphthylene] | < 50 | < 50 | < 50 | < 50 | < 50 | < 50
c1ccc(CC2CCN(c3nc4c5c(n[nH]c5n3)CCN4Cc3ccccc3)CC2)cc1 [Compound 45, 6-benzyl-4-(4-benzylpiperidin-1-yl)-2,6,7,8-tetrahydro-1,2,3,5,6-pentaazaacenaphthylene] | < 50 | < 50 | < 50 | < 50 | < 50 | < 50
Fc1ccc(CCNc2nc3c4c(n[nH]c4n2)CCN3Cc2ccccc2)cc1 [Compound 46, 6-benzyl-N-[2-(4-fluorophenyl)ethyl]-2,6,7,8-tetrahydro-1,2,3,5,6-pentaazaacenaphthylen-4-amine] | > 79 | > 79 | > 79 | 50 to 79 | < 50 | > 79
COc1ccc(CNc2nc3c4c(n[nH]c4n2)CCN3Cc2ccccc2)cc1OC [Compound 47, 6-benzyl-N-(3,4-dimethoxybenzyl)-2,6,7,8-tetrahydro-1,2,3,5,6-pentaazaacenaphthylen-4-amine] | < 50 | < 50 | < 50 | < 50 | < 50 | < 50
COc1ccccc1CCNc1nc2c3c(n[nH]c3n1)CCN2Cc1ccccc1 [Compound 48, 6-benzyl-N-[2-(2-methoxyphenyl)ethyl]-2,6,7,8-tetrahydro-1,2,3,5,6-pentaazaacenaphthylen-4-amine] | < 50 | < 50 | 50 to 79 | < 50 | < 50 | < 50
c1ccc(CN2CCc3n[nH]c4nc(NC5CCC5)nc2c34)cc1 [Compound 49, 6-benzyl-N-cyclobutyl-2,6,7,8-tetrahydro-1,2,3,5,6-pentaazaacenaphthylen-4-amine] | < 50 | < 50 | 50 to 79 | < 50 | < 50 | < 50
COc1cc(CNc2nc3c4c(n[nH]c4n2)CCN3Cc2ccccc2)cc(OC)c1OC [Compound 50, 6-benzyl-N-(3,4,5-trimethoxybenzyl)-2,6,7,8-tetrahydro-1,2,3,5,6-pentaazaacenaphthylen-4-amine] | < 50 | < 50 | < 50 | < 50 | < 50 | < 50
O=C1CCCN1CCCNc1nc2c3c(n[nH]c3n1)CCN2Cc1ccccc1 [Compound 51, 1-{3-[(6-benzyl-2,6,7,8-tetrahydro-1,2,3,5,6-pentaazaacenaphthylen-4-yl)amino]propyl}pyrrolidin-2-one] | < 50 | < 50 | < 50 | < 50 | < 50 | < 50
CCC(C)Nc1nc2c3c(n[nH]c3n1)CCN2Cc1ccccc1 (stereo not drawn) [Compound 52, 6-benzyl-N-sec-butyl-2,6,7,8-tetrahydro-1,2,3,5,6-pentaazaacenaphthylen-4-amine] | > 79 | > 79 | > 79 | 50 to 79 | < 50 | 50 to 79
O=C(c1ccco1)N1CCN(c2nc3c4c(n[nH]c4n2)CCN3Cc2ccccc2)CC1 [Compound 53, 6-benzyl-4-[4-(2-furoyl)piperazin-1-yl]-2,6,7,8-tetrahydro-1,2,3,5,6-pentaazaacenaphthylene] | < 50 | < 50 | 50 to 79 | < 50 | < 50 | < 50
c1ccc(CN2CCc3n[nH]c4nc(NCc5ccco5)nc2c34)cc1 [Compound 54, 6-benzyl-N-(2-furylmethyl)-2,6,7,8-tetrahydro-1,2,3,5,6-pentaazaacenaphthylen-4-amine] | < 50 | < 50 | < 50 | < 50 | < 50 | < 50
c1ccc(CN2CCc3n[nH]c4nc(NCC5CCCCC5)nc2c34)cc1 [Compound 55, 6-benzyl-N-(cyclohexylmethyl)-2,6,7,8-tetrahydro-1,2,3,5,6-pentaazaacenaphthylen-4-amine] | > 79 | > 79 | > 79 | 50 to 79 | < 50 | < 50
c1ccc(CN2CCc3n[nH]c4nc(N5CCN(c6cnccn6)CC5)nc2c34)cc1 [Compound 56, 6-benzyl-4-(4-pyrazin-2-ylpiperazin-1-yl)-2,6,7,8-tetrahydro-1,2,3,5,6-pentaazaacenaphthylene] | < 50 | < 50 | < 50 | < 50 | < 50 | < 50
c1ccc(CN2CCc3n[nH]c4nc(NCCN5CCOCC5)nc2c34)cc1 [Compound 57, 6-benzyl-N-(2-morpholin-4-ylethyl)-2,6,7,8-tetrahydro-1,2,3,5,6-pentaazaacenaphthylen-4-amine] | > 79 | > 79 | > 79 | 50 to 79 | > 79 | > 79
COc1cc2c(cc1OC)CN(c1nc3c4c(n[nH]c4n1)CCN3Cc1ccccc1)CC2 [Compound 58, 6-benzyl-4-(6,7-dimethoxy-3,4-dihydroisoquinolin-2(1H)-yl)-2,6,7,8-tetrahydro-1,2,3,5,6-pentaazaacenaphthylene] | 50 to 79 | < 50 | 50 to 79 | 50 to 79 | > 79 | < 50
c1ccc(CN2CCc3n[nH]c4nc(NCC5COc6ccccc6O5)nc2c34)cc1 (stereo not drawn) [Compound 59, 6-benzyl-N-(2,3-dihydro-1,4-benzodioxin-2-ylmethyl)-2,6,7,8-tetrahydro-1,2,3,5,6-pentaazaacenaphthylen-4-amine] | < 50 | < 50 | < 50 | < 50 | < 50 | < 50
CC(C)Nc1nc2c3c(n[nH]c3n1)CCN2Cc1ccccc1 [Compound 60, 6-benzyl-N-isopropyl-2,6,7,8-tetrahydro-1,2,3,5,6-pentaazaacenaphthylen-4-amine] | < 50 | < 50 | < 50 | < 50 | < 50 | < 50
Clc1ccc(CCNc2nc3c4c(n[nH]c4n2)CCN3Cc2ccccc2)cc1 [Compound 61, 6-benzyl-N-[2-(4-chlorophenyl)ethyl]-2,6,7,8-tetrahydro-1,2,3,5,6-pentaazaacenaphthylen-4-amine] | 50 to 79 | < 50 | < 50 | 50 to 79 | < 50 | < 50
